According to article PMC9301920, “Physiologically Based Toxicokinetic Modeling of Bisphenols in Zebrafish (Danio rerio) Accounting for Variations in Metabolic Rates, Brain Distribution, and Liver Accumulation” (Environmental Science & Technology, 2022):

Test: In vitro biotransformation rate, rainbow trout liver S9 (OECD TG 319)
Assay type: in vitro ADME
Description: In brief, rainbow trout liver S9 homogenate was preincubated in buffer and cofactors, followed by 120 min of incubation with bisphenol. From each duplicate, 50 μL of subsamples was taken at timepoints 0, 2, 5, 15, 30, 60, 90, and 120 min and mixed with 200 μL of ice-cold methanol. The protocol of the procedure is described further in Section 2.
1042. Biotransformation rate estimation methodology
106Trinova Biochem; Lot: 180216) was pre-incubated at 11°C in K 2HPO4/KH2PO4 buffer
107(pH=7.8; 1 mL final volume) containing alamethicin from Trichoderma viride (25 μg/mL), and
108cofactors NADPH (2 mM), UDPGA (2 mM), GSH (5 mM), and PAPS (0.1 mM). After 10 min
109of preincubation, biotransformation was started by adding 5 µL of bisphenol test compound
110dissolved in methanol (1 µM final concentration). […]

With Oc1ccc(C2(c3ccc(O)cc3)CCCCC2)cc1 [BPZ, bisphenol Z] the CL (both series combined) was 0.30 mL/(h x mg), the “CLin vivo,int (in vivo intrinsic clearance)” value (from measured S9 clearance, transformed as suggested by Nichols et al.) was 17.4 L/d/Kg fish and the “CL (clearance rate)” value (in vitro incubation with rainbow trout liver S9, assuming 163 mg S9 protein/g liver) was 1.16 × 10^3 mL/d/g liver. For the same compound, the CL (series 1 (s1)) was 0.33 mL/(h x mg), the “k (first-order disappearance rate constant)” value (series 1 (s1)) was 0.32 h⁻¹ and the CL (series 2 (s2)) was 0.26 mL/(h x mg). For the same compound, the “k (first-order disappearance rate constant)” value (series 2 (s2)) was 0.26 h⁻¹.
